Measurements reported in patent US20100203614A1, “FATTY ALDEHYDE REDUCTASE” (Utah State University, priority 2009, published 2010).
“And” between values parts separate entries of the source, which are not always exact repeats. Equal entries are not always repeated. “Also recorded” adds a separate entry of the source. Structures can show the parent of a compound that is named as a salt. Where two headings read alike, the source gives them in different places.

Key:
[1] = target: Marinobacter aquaeolei VT8 fatty aldehyde reductase (SEQ ID NO: 2) as maltose binding protein-fatty aldehyde reductase fusion protein (MBP-FALDR), SEQ ID NO: 3 (Marinobacter nauticus, UniProt A1U2T0); test: Inhibition of decanal reduction by MBP-FALDR; format: biochemical; conditions: for effect on activity (in words): 1.0 mM
Experimental: (§1) For Fatty Aldehyde Continuous Spectrophotometric Assay Development, all assays were performed in a sealed quartz cuvette with a 1 cm path length. The cuvette and solutions were first degassed with argon on a manifold to remove oxygen from the headspace and solutions. Substrates were initially disbursed into a buffer solution containing BSA at a concentration of 0.5 mg/mL by sonication for three ten second intervals using a microtip sonicator (Branson, Danbury, Conn.). The initial assay for pH optimization included a buffer of 100 mM MOPS, 100 mM MES, and 100 mM TAPS. For reduction assays, 75 μL of a 2 mg/mL NADPH stock was added to bring the initial concentration of NADPH in the cuvette to approximately 200 μM, and an approximate absorbance at 340 nm of 1.2 based on the reported extinction coefficient of 6220 M^−1 cm^−1 for NADPH. In all assays, the reaction was run for at least two minutes with the NADPH and substrate present, prior to the addition of any enzyme, to obtain a background oxidation rate of the NADPH. […] A linear fit of the data was then used to establish the rate, and the initial background rate was subtracted, to determine the rate associated with substrate reduction by the MBP-FALDR enzyme.
To probe the possible mechanism of the fatty aldehyde reducatase enzyme comprising the amino acid sequence of SEQ ID NO: 2, applicants again used the MBP-FALDR enzyme and some potential chemical inhibitors were tested for effects on the reduction of decanal by the MBP-FALDR enzyme in the presence of NADPH. In all cases, the compound was tested initially at concentrations of 1.0 mM, and if a significant inhibition was found, lower concentrations were also tested (Table 2). […] At higher concentrations, this was difficult to assess fully, as the dithionite interferes with the absorbance at 340 nm where activity is measured. […] This could be an indication of an active site residue or cofactor that is susceptible to reduction. […] This would indicate that if a transition metal is involved in the catalysis, it is not readily accessible to such chelators. Finally, the ability of decanol to inhibit reduction of decanal was also tested.
Certain embodiments of the invention may be characterized, in part, by the inhibition of the reduction of decanal by a fatty aldehyde reductase enzyme comprised by an amino acid sequence at least 90% identical to the amino acid sequence of SEQ ID NO: 2.
Referring again to Table 2, the inhibition assays were run in 100 mM MES buffer pH 6.5 with 200 μM NADPH, 250 μM decanal and 125 μg of MBP-FALDR fusion protein. All compounds were dissolved in buffer except dipyridyl, which was dissolved in dimethyl sulfoxide (DMSO). […] Activity is reported as the activity remaining in the presence of each compound as a percentage of the activity without any inhibitor present. *Not determined. Each compound was tested multiple times to confirm reproducibility. The remaining activity presented here is the result from a single set of data.

[2] = test system: MBP-FALDR enzyme (maltose binding protein-fatty aldehyde reductase fusion protein); test: Continuous spectrophotometric assay of fatty aldehyde reductase activity (NADPH oxidation at 340 nm), substrate comparison and kinetics; format: biochemical, Marinobacter aquaeolei VT8; conditions: for substrate activity in words: compared with decanal; for substrate activity in words / Relative Activity (Percent of Decanal): substrate 100 μg/mL; for Relative Activity (Percent of Decanal): 160 μg enzyme, decanal = 85 nmols/min/mg = 100; for Km: substrate of MBP-FALDR, NADPH, FIG. 2 substrate is cis-11-hexadecenal
Experimental: as §1
Having established that the MBP-FALDR would utilize NADPH as a substrate, it was possible to employ a continuous spectrophotometric assay to monitor substrate reduction rates based on the loss of absorbance at 340 nm when NADPH is oxidized to NADP^+. Using this assay, it was possible to establish the pH dependence of the reduction reaction. The rate of reaction was highest at pH 6.3, with a steep increase in activity going from 8.0 to 6.3. The rate at 6.3 was only slightly greater than at 6.5 ([…]). Several factors had to be considered in establishing the optimal pH of the assay. The first was the background oxidation of the NADPH without any MBP-FALDR enzyme present. […] The assays were run under an argon atmosphere to minimize oxidation of the NADPH by O2. A further consideration was the rapid degradation that occurs at the lowest pH values. […] So, for standard assays used here, a pH of 6.5 was selected, where the activity was minimally affected by slight variations in pH. The following discussion is useful in understanding some features and benefits of the various embodiments of the invention:
Utilizing the continuous assay to monitor MBP-FALDR activity, the dependence of rate on substrate concentration was determined for all of the commercially available substrates described above. Each assay was repeated multiple times to confirm the results from each single determination. The results obtained for cis-11-hexadecenal are shown in FIG. 2 and are representative of the results obtained for repeated determinations and for the other substrates. […] In addition, several factors could limit the observed activity. All of the substrates tested have limited solubility in aqueous solutions, and must first be suspended in solution via sonication. Even under these conditions, it is likely that the substrates exist inside micelles. The sonication process utilized here could result in the partial degradation of the substrate over time. Additionally, the suspension of the substrate in solution is only temporary, and the substrate slowly separates from aqueous solution. Due to these limitations, the measured activity is likely to be an underestimate of the actual activity. In the cell, the enzyme and substrate are likely associated with the hydrophobic membranes. […] It was also observed that the MBP-FALDR enzyme was unstable over time, even when stored at 4° C., losing as much as 50% of the activity over a period of a week. Though the purification is quite rapid, it is uncertain how much activity is lost during preparation. […]

[3] = test system: MBP-FALDR enzyme; test: Initial assessment of activity: overnight reaction with NADPH/NADH or NADP+, GC/GC-MS analysis; format: biochemical, Marinobacter aquaeolei VT8; conditions: with NADP+
Experimental: For initial assessment of the activity of the purified MBP-FALDR enzyme, 50 μg of purified MBP-FALDR protein was added to a reaction mixture containing 100 mM of Tris buffer at pH 7.9, 100 mM NaCl, 2.4 mM of either NADPH or NADH as a reductant, and decanal, oleic acid, and hexadecanol as possible substrates. The assays were run under an argon atmosphere in septa sealed vials overnight at room temperature with constant gentle mixing. The products of the reactions were then extracted from the buffer by adding an equal volume of hexane and organic layer components were analyzed by gas chromatography equipped with a flame ionization detector (Forte HT5 column (SGE Analytical Science, Austin, Tex.), 30 meter by 0.32 mm inner diameter with 0.5 μm film thickness, with argon as a carrier and a temperature ramp from 60° C. to 360° C. increasing at 10° C. per minute). Samples containing new peaks not present in a control sample were also run through a gas chromatograph equipped with a mass spectrometer (Shimadzu GC-2010 and GCMS-QP2010S) to assign the identity of the product.
Preliminary experiments were run with the MBP-FALDR enzyme to probe possible substrates by mixing either NADH or NADPH with an aldehyde (decanal), alcohol (hexadecanol) or fatty acid (oleic acid) and then looking for changes in concentration of one or more of the potential substrates by GC analysis. The assays were allowed to run overnight in a sealed vial under an atmosphere of argon to maintain the reduced forms of the nicotinamide coenzymes. […] This initial result pointed to the likelihood that the MBP-FALDR enzyme is an NADPH-dependent fatty aldehyde reductase, and further experiments were run to characterize this activity. […] The activity of medium chain alcohol dehydrogenases from a broad range of species show rates of oxidation of alcohols that are 10% of the rates of the reduction of the corresponding aldehyde, so it is possible that this rate is too low to detect.

[4] = test system: MBP-FALDR fusion protein; test: Inhibition of decanal reduction by MBP-FALDR in the presence of NADPH; format: biochemical, Marinobacter aquaeolei VT8; conditions: for Percent Activity: 100 mM MES pH 6.5, 200 μM NADPH, 250 μM decanal, 125 μg MBP-FALDR, activity remaining vs no inhibitor; for effect on decanal reduction in words: tested at 1.0 mM
Experimental: For Fatty Aldehyde Continuous Spectrophotometric Assay Development, all assays were performed in a sealed quartz cuvette with a 1 cm path length. The cuvette and solutions were first degassed with argon on a manifold to remove oxygen from the headspace and solutions. Substrates were initially disbursed into a buffer solution containing BSA at a concentration of 0.5 mg/mL by sonication for three ten second intervals using a microtip sonicator (Branson, Danbury, Conn.). The initial assay for pH optimization included a buffer of 100 mM MOPS, 100 mM MES, and 100 mM TAPS. For reduction assays, 75 μL of a 2 mg/mL NADPH stock was added to bring the initial concentration of NADPH in the cuvette to approximately 200 μM, and an approximate absorbance at 340 nm of 1.2 based on the reported extinction coefficient of 6220 M^−1 cm^−1 for NADPH. In all assays, the reaction was run for at least two minutes with the NADPH and substrate present, prior to the addition of any enzyme, to obtain a background oxidation rate of the NADPH.
Finally, the ability of decanol to inhibit reduction of decanal was also tested.
Referring again to Table 2, the inhibition assays were run in 100 mM MES buffer pH 6.5 with 200 μM NADPH, 250 μM decanal and 125 μg of MBP-FALDR fusion protein. All compounds were dissolved in buffer except dipyridyl, which was dissolved in dimethyl sulfoxide (DMSO).

[5] = reduction of decanal with NADPH

## OCCS [β-Mercaptoethanol]
[1]; 1.0 mM inhibitor, 100 mM MES pH 6.5, 200 μM NADPH, 250 μM decanal, 125 μg MBP-FALDR, % of activity without inhibitor, read-out: Percent Activity (activity remaining in presence of inhibitor)
  inhibition at 1000 µM: 75%

## CCCCCC=O [Hexanal]
[2]
  substrate activity in words: no apparent activity
  Relative Activity (Percent of Decanal): <1% of Decanal

## CCCCCCCCCCCCCCCCO [hexadecanol]
[3]
  reverse reaction: aldehyde production by GC: no detectable levels

## CCCCCCCCCCCC=O [Dodecanal]
[2]
  substrate activity in words: activity was lower
  Relative Activity (Percent of Decanal): 55% of Decanal
[2]; Michaelis-Menten fit
  Km: ~200 µM

## O[C@H](CS)[C@H](O)CS (racemic) [Dithiothreitol]
[4]; inhibitor 1.0 mM
  Percent Activity: 76%

## CCCC/C=C\CCCCCCCCCC=O [cis-11-hexadecenal]
[2]; Michaelis-Menten fit, substrate cis-11-hexadecenal (FIG. 2)
  Vmax (maximum velocity): 63 nmol/min/mg
[2]
  substrate activity in words: slightly lower than that obtained for decanal; also recorded: activity comparable to decanal
  Relative Activity (Percent of Decanal): 87% of Decanal
[2]; Michaelis-Menten fit
  Km: ~177 µM and 177 µM

## CCCCCCCC=O [Octanal]
[2]
  substrate activity in words: approximately half the activity obtained for decanal
  Relative Activity (Percent of Decanal): 52% of Decanal
[2]; Michaelis-Menten fit
  Km: ~750 µM

## CCCCCCCCCCCCO [Dodecanol]
[4]; inhibitor 0.25 mM
  Percent Activity: 55%
[4]; inhibitor 1.0 mM
  Percent Activity: 54%

## CCCC=O [Butanal]
[2]
  substrate activity in words: no apparent activity
  Relative Activity (Percent of Decanal): <1% of Decanal

## O=C(O)CN(CCN(CC(=O)O)CC(=O)O)CC(=O)O [EDTA (Disodium Salt)]
[1]; [5]
  effect on activity (in words): little effect on the activity
[1]; pH 6.5, read-out: Percent Activity (activity remaining in presence of inhibitor)
  inhibition at 1000 µM: 81%

## O=Cc1ccccc1 [Benzaldehyde]
[2]
  substrate activity in words: no apparent activity
  Relative Activity (Percent of Decanal): <1% of Decanal

## c1ccc(-c2ccccn2)nc1 [Dipyridyl]
[4]; inhibitor 0.25 mM
  Percent Activity: 59%
[4]; inhibitor 1.0 mM
  Percent Activity: 46%
[4]
  effect on decanal reduction in words: moderate inhibition
[1]; [5]
  effect on activity (in words): only a moderate inhibition of activity

## O=C1O[C@H]([C@@H](O)CO)C(O)=C1O [Ascorbic Acid]
[4]; inhibitor 1.0 mM
  Percent Activity: 76%

## O=S(O)S(=O)O [Dithionite]
[4]; inhibitor 0.25 mM
  Percent Activity: 8%
[4]; inhibitor 1.0 mM
  Percent Activity: 25%
[4]
  effect on decanal reduction in words: significant decrease in activity
[1]; 0.25 mM inhibitor, 100 mM MES pH 6.5, 200 μM NADPH, 250 μM decanal, 125 μg MBP-FALDR, % of activity without inhibitor
  Percent Activity (activity remaining in presence of inhibitor): 8%
[1]; 250 μM, reduction of decanal with NADPH, compared with higher concentration
  inhibition (in words): the inhibition is more pronounced
[1]; 1.0 mM inhibitor, 100 mM MES pH 6.5, 200 μM NADPH, 250 μM decanal, 125 μg MBP-FALDR, % of activity without inhibitor
  Percent Activity (activity remaining in presence of inhibitor): 25%
[1]; [5]
  effect on activity (in words): significant decrease in activity
